Holding throughout (type): in vivo
For experiment [1], the system named is Heliothis virescens (tobacco budworm - larvae). In words: Residual test, tobacco budworm - larvae (HV), Cotton leaf. The settings on record: 72 h, read-out: HV grading of mortality. In outline:
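Products applied as acetone solutions diluted in water with 0.1% wetting agent, at 100–500 ppm; pests on host plant or food, with pests and/or medium treated. Mortality or knockdown scored 1–7 days after treatment and graded A (80–100%), B (50–79%) or C (<50%).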

The test system of experiment [2] is Musca domestica (houseflies - adults). In words: Contact test, houseflies - adults (MD), Cotton wool/sugar. The settings on record: 24 h, 1 day, read-out: MD grading of mortality. In outline: (§1)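 Compound dissolved in acetone and diluted in water with 0.1% SYNPERONIC NX wetting agent to 100–500 ppm. Pests held on host plant or food medium, with pests and/or medium treated. Mortality scored 1–7 days after treatment.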

Experiment [3] deals with Meloidogyne incognita (Tomato root knot eelworm - larvae). In words: Residual test, Tomato root knot eelworm - larvae (MI), Semi in-vitro. The settings on record: 168 h, application rate is half that recorded, 7 days, read-out: MI grading of mortality; for mortality at 250 µg/mL: rate column 500 ppm; for mortality at 125 µg/mL: rate 250 ppm.
The test system of experiment [4] is Chilo partellus (Maize stemborer - larvae). In words: Residual test, Maize stemborer - larvae (CP), Oilseed rape. The conditions noted are these: 72 h, 3 days, read-out: CP grading of mortality. As for the experimental part: The activity of the Product was determined using a variety of insect pests. The Product was used in the form of liquid preparations containing from 100 to 500 parts per million (ppm) by weight of the Product. The preparations were made by dissolving the Product in acetone and diluting the solutions with water containing 0.1% by weight of a wetting agent sold under the trade name "SYNPERONIC" NX until the liquid preparations contained the required concentration of the Product. "SYNPERONIC" is a Registered Trade Mark.
The test procedure adopted with regard to each pest was basically the same and comprised supporting a number of the pests on a medium which was usually a host plant or a foodstuff on which the pests feed, and treating either or both the pests and the medium with the preparations. The mortality of the pests was then assessed at periods usually varying from one to seven days after the treatment.
The results of the tests are given in Table III for each of the Products, at the rate in parts per million given in the second column as a grading of mortality designated as A, B or C wherein A indicates 80-100% mortality or knockdown (70-100% for Meloidogyne incognita), B indicates 50-79% mortality knockdown or knockdown (50-69% for Meloidogyne incognita) and C indicates less than 50% mortality or knockdown.
In Table III the pest organism used is designated by a letter code and the pests species, the support medium or food, and the type and duration of test is given in Table II.
(Maize stemborer - larvae)

Experiment [5] concerns Tetranychus urticae (spider mites - ova). In words: Contact test, spider mites - ova (TUe), French bean leaf. The settings on record: 144 h, 6 days, read-out: TUE grading of mortality. Summed up: as §1
The test system of a further experiment is Myzus persicae (aphids). In words: Contact test, aphids (MP), Chinese Cabbage leaf. The settings on record: 72 h, 3 days, read-out: MP grading of mortality. In outline: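 Aphids on a host plant and/or the plant itself were treated with 100–500 ppm of product, applied from acetone diluted in water containing 0.1% SYNPERONIC NX wetting agent. Mortality was scored usually one to seven days after treatment.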

For experiment [6], the system named is Diabrotica balteata (rootworm larvae). In words: Residual test, rootworm larvae (DB), Filter paper/maize seed. The settings on record: 72 h, 3 days, read-out: DB grading of mortality. In outline:
as §1

Experiment [7] relates to Musca domestica (houseflies - adults). In words: Knockdown test, houseflies - adults (MD/KD), Cotton wool/sugar. The conditions noted are these: 4 hours, read-out: MD/KD grading of knockdown. In outline:
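Product was dissolved in acetone and diluted with water containing 0.1% wetting agent to 100–500 ppm. The flies and/or their food medium were treated with the preparation. Mortality was scored 1–7 days after treatment, with an additional knockdown assessment for houseflies.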

The subject of experiment [8] is Nilaparvata lugens (brown plant hopper - nymphs). In words: Contact test, brown plant hopper - nymphs (NL), Rice plant. The conditions noted are these: 72 h, 3 days, read-out: NL grading of mortality. In outline: as §1
Experiment [9] concerns Tetranychus urticae (spider mites - adult). In words: Contact test, spider mites - adult (TUa), French bean leaf. The conditions noted are these: 72 h, 3 days, read-out: TUA grading of mortality. Summed up: as §1
Experiment [10] relates to Blattella germanica (cockroach nymphs). In words: Residual test, cockroach nymphs (BG), Plastic pot. The settings on record: 72 h, 3 days, read-out: BG grading of mortality. Summed up:
as §1

Drawing on patent US4791139A, “Diphenyl ether derivatives and their use as insecticides” (Imperial Chemical Industries PLC, priority 1986, dated 1988), this text covers mortality and pest or weed control for nine molecules.

The mortality is the percentage killed.

In the case of `CCOc1ccc(/C(=C\CCc2cccc(Oc3ccccc3)c2)C(F)(F)F)cc1` [Compound 3, E-1,1,1-trifluoro-2-(4-ethoxyphenyl)-5-(3-phenoxyphenyl)pent-2-ene], the mortality at 500 ppm in experiment [1] was 80 to 100%; in experiment [2], 80 to 100%; in experiment [4], 80 to 100%; in experiment [5], below 50%; in the experiment on Myzus persicae (aphids), 80 to 100%; in experiment [6], 80 to 100%. Besides, the mortality at 500 ppm is below 50% in [8], 50 to 79% in [9] and 80 to 100% in [10]. In experiment [3], the mortality at 250 µg/mL is below 50%. For the same molecule, the pest or weed control at 500 ppm in experiment [7] was in the range of 80 to 100%.
Turning to `CCOc1ccc(/C(=C\C=C\c2ccc(F)c(Oc3ccccc3)c2)C(F)(F)F)cc1` [Compound 36, 1,1,1-trifluoro-2-(4-ethoxyphenyl)-5-(4-fluoro-3-phenoxyphenyl)penta-2,4-diene], the mortality at 250 ppm is 80 to 100% in experiment [1]; 80 to 100% in experiment [2]; 80 to 100% in experiment [4]; below 50% in [5]; 80 to 100% with Myzus persicae (aphids); 80 to 100% in experiment [6]. Besides, the values for the mortality at 250 ppm in experiment [8], in [9] and in experiment [10] were 80 to 100%, below 50% and 80 to 100%, respectively. In [3], the mortality at 125 µg/mL fell in the range of 50 to 69%. Besides, the pest or weed control at 250 ppm in experiment [7] lay in the range of 80 to 100%.
Take `FC(F)(F)Oc1ccc(C(=CCCc2cccc(Oc3ccccc3)c2)C(F)(F)F)cc1` [Compound 7, 5-(3-phenoxyphenyl)-2-(4-trifluoromethoxyphenyl)-1,1,1-trifluoropent-2-ene]: the mortality at 250 ppm in [1] lay in the range of 80 to 100%; in experiment [2], 50 to 79%; in experiment [4], 80 to 100%; in experiment [5], 80 to 100%; in the experiment with Myzus persicae (aphids), 80 to 100%; in [6] it was 80 to 100%. Moreover, the mortality at 250 ppm in experiment [8], in [9] and in experiment [10] was 80 to 100% throughout. Besides, in experiment [3], the mortality at 125 µg/mL was below 50%. Further, the pest or weed control at 250 ppm in [7] was below 50%.
Consider `Fc1ccc(CCCC(c2ccc(OC(F)(F)F)cc2)C(F)(F)F)cc1Oc1ccccc1` (racemic) [Compound 20, 1,1,1-Trifluoro-2-(4-trifluoromethoxyphenyl)-5-(4-fluoro-3-phenoxyphenyl)pentane], for which the mortality at 100 ppm (in [1]; in [2] (100 ppm); in [4] (100 ppm); in experiment [5] (100 ppm); with Myzus persicae (aphids) (100 ppm); in experiment [6] (100 ppm)) was 80 to 100% throughout. The results for the mortality at 100 ppm in [8] (100 ppm), in [9] (100 ppm) and in [10] (100 ppm) were 80 to 100%, 50 to 79% and 80 to 100%, respectively. The mortality at 50 µg/mL in [3] (rate column 100 ppm) was below 50%. Also, the pest or weed control at 100 ppm in experiment [7] (100 ppm) fell in the range of 80 to 100%.
On to `CCOc1ccc(C(CCCc2ccc(F)c(Oc3ccccc3)c2)C(F)(F)F)cc1` (racemic) [Compound 5, 1,1,1-Trifluoro-2-(4-ethoxyphenyl)-5-(4-fluoro-3-phenoxyphenyl)pentane], for which the mortality at 250 ppm in [1] was 80 to 100%; in experiment [2] it was 80 to 100%; in experiment [4], 80 to 100%; in experiment [5], 50 to 79%; in the experiment with Myzus persicae (aphids), 80 to 100%; in experiment [6], 80 to 100%. Moreover, the mortality at 250 ppm in experiment [8], in experiment [9] and in [10] was 80 to 100% in each case. The mortality at 125 µg/mL in experiment [3] is below 50%. Moreover, the pest or weed control at 250 ppm in experiment [7] was in the range of 80 to 100%.
As for `CCOc1ccc(C(C/C=C\c2cccc(Oc3ccccc3)c2)C(F)(F)F)cc1` (stereo not drawn) [Compound 35, 1,1,1-trifluoro-2-(4-ethoxyphenyl)-5-(3-phenoxyphenyl)pent-4-ene], the mortality at 250 ppm in experiment [1] is 80 to 100%; in [2], 80 to 100%; in [4], 80 to 100%; in [5], below 50%; with Myzus persicae (aphids) it was 80 to 100%; in [6] it was 80 to 100%. Moreover, the mortality at 250 ppm in experiment [8], in experiment [9] and in experiment [10] was 80 to 100% each time. Also, the mortality at 125 µg/mL in experiment [3] was below 50%. Also, in experiment [7], the pest or weed control at 250 ppm was 80 to 100%.
In the case of `FC(F)(F)C(=CCCc1cccc(Oc2ccccc2)c1)c1ccc(C(F)(F)F)cc1` [Compound 15, 5-(3-phenoxyphenyl)-1,1,1-trifluoro-2-(4-trifluoromethylphenyl)pent-2-ene], the mortality at 250 ppm in [1] was 80 to 100%; in experiment [2], below 50%; in experiment [4], 80 to 100%; in experiment [5], below 50%; with Myzus persicae (aphids) it was below 50%; in experiment [6] it was below 50%. For the same molecule, the mortality at 250 ppm in experiment [8] was below 50%; in experiment [9] it was 50 to 79%; in experiment [10] it was 80 to 100%. The mortality at 125 µg/mL in [3] is below 50%. Moreover, the pest or weed control at 250 ppm in experiment [7] was below 50%.
Regarding `CCOc1ccc(/C(=C\C=Cc2ccc(F)c(Oc3ccccc3)c2)C(F)(F)F)cc1` [Compound 12, 1,1,1-trifluoro-2-(4-ethoxyphenyl)-5-(4-fluoro-3-phenoxyphenyl)penta-2,4-diene], the mortality at 500 ppm in [1] is 80 to 100%; in [2], 80 to 100%; in [4], 80 to 100%; in [5] it was below 50%; in the experiment with Myzus persicae (aphids), below 50%; in [6] it was 80 to 100%. Further, the mortality at 500 ppm in [8] was 80 to 100%; in [9], below 50%; in experiment [10], 80 to 100%. Further, the mortality at 250 µg/mL in experiment [3] is 70 to 100%. The pest or weed control at 500 ppm in [7] was 80 to 100%.
`CCOc1ccc(/C(=C/CCc2cccc(Oc3ccccc3)c2)C(F)(F)F)cc1` [Compound 4, Z-1,1,1-trifluoro-2-(4-ethoxyphenyl)-5-(3-phenoxyphenyl)pent-2-ene]: the mortality at 500 ppm in experiment [1] is 80 to 100%; in experiment [2], below 50%; in [4] it was 80 to 100%; in [5], below 50%; in the experiment with Myzus persicae (aphids), below 50%; in [6] it was below 50%. The mortality at 500 ppm in experiment [8], in [9] and in experiment [10] was below 50% throughout. Also, the mortality at 250 µg/mL in experiment [3] was below 50%. For the same molecule, the pest or weed control at 500 ppm in [7] is below 50%.
